{"source": "patent EP4574149A1", "about": "“COMPOSITION OF RAPAMYCIN, DIMETHYLSULPHOXIDE AND WATER FOR USE IN THE TREATMENT OF FATTY LIVER DISEASE” (Assistance Publique - Hôpitaux de Paris, priority 2023, dated 2025)", "key": {"tissus hépatiques": {"system": "tissus hépatiques", "assay": "Defatting effect of rapamycin on hepatic tissues, liver slices (Example 2)", "assay_type": "cell-based", "details": "rapamycine 200nM, read-out: diminution du taux de triglycérides intracellulaires par rapport au contrôle", "description": "(§1) La rapamycine a été évaluée sur des cultures d'hépatocytes et sur tissus hépatiques (tranches de foies permettant de garder la structure hépatique). Pour une concentration de rapamycine à 200nM, il était observé une diminution de 19% du taux de triglycérides intracellulaires par rapport au contrôle dans les hépatocytes et de 38% dans les tissus hépatiques. Ces résultats répétés plusieurs fois ont permis de confirmer la preuve de concept de l'effet de la rapamycine sur l'effet « dégraissant »."}, "hépatocytes": {"system": "hépatocytes", "assay": "Defatting effect of rapamycin on hepatocyte cultures (Example 2)", "assay_type": "cell-based", "details": "rapamycine 200nM, hepatocytes, read-out: diminution du taux de triglycérides intracellulaires par rapport au contrôle", "description": "as §1"}, "[1]": {"assay": "Perfusion circuit with pig liver: pharmacokinetics of rapamycin", "assay_type": "in vitro ADME, cochon", "details": "pig liver on perfusion machine", "description": "Le même protocole de perfusion a été utilisé mais avec un foie animal. Celui-ci a été prélèvé chez un cochon en arrêt cardiaque puis préservé dans de la glace. Il a ensuite été mis sur machine de perfusion, initialement en hypothermie (4°C) pendant 2 heures puis à 37°C pendant 12 heures avec une phase de réchauffement intermédiaire (sub normothermie, 21°C). La rapamycine était injectée dans le circuit 2 heures après le début de la phase de normothermie. Neuf expériences ont été réalisées. L'objectif était d'avoir une étude pharmacocinétique de la rapamycine."}, "[2]": {"assay": "Perfusion circuit without organ: rapamycin concentration in whole blood perfusate", "assay_type": "in vitro ADME, humain", "details": "whole human blood perfusate at 37°C, no organ; theoretical target 180 ng/mL; 4 experiments", "description": "Une machine de perfusion hépatique a été utilisée avec du perfusat constitué de sang total humain maintenu à 37°C. La rapamycine a été injectée directement dans le circuit de perfusion. Des prélèvements étaient réalisés à intervalles réguliers pour doser la molécule. L'expérience a été réalisée 4 fois, l'objectif étant de valider la concentration cible théorique de 180 ng/mL définie à partir des études précédentes d'efficacité et de toxicité."}, "[3]": {"details": "in DMSO (Simamora P et al., 2001); cited from earlier work"}, "[4]": {"assay": "Solubility study of rapamycin in DMSO/H2O mixtures", "assay_type": "physicochemical", "description": "Une étude de solubilité a été réalisée sur des mélanges DMSO/H2O, de 40% à 100% (v/v) en DMSO et des concentrations en rapamycine comprises entre 0,4 et 4 mg/mL.\nL'évaluation de la solubilisation de rapamycine en fonction de différentes concentrations de DMSO est présentée au Tableau 3 ci-dessous : Tableau 3 : Evaluation de la solubilisation de rapamycine en fonction de différentes concentrations de DMSO.\nA la suite de ces résultats, une nouvelle étude a été lancée sur un intervalle plus restreint en DMSO, avec 3 niveaux de concentrations (70%; 85%; 100%) et les 3 mêmes niveaux de rapamycine (0,4; 1; 4 mg/mL) (Tableau 4). Tableau 4 : Evaluation de la solubilisation de rapamycine dans des concentrations de DMSO à 70%, 85% et 100%."}, "foies humains": {"system": "foies humains", "assay": "Perfusion circuit with steatotic human livers: intracellular triglycerides and pharmacokinetics", "details": "for diminution du taux de triglycérides intra cellulaires: steatosis > 50%", "description": "De la même manière, l'expérience a été réalisée avec deux foies humains jugés non transplantables et utilisés à visée scientifique après autorisation de l'Agence de Biomédecine. […] L'évaluation de la viabilité de ces deux organes ont été faites selon des critères validés en pratique clinique. […] Pour ce faire, les triglycérides intra cellulaires ont été dosés."}}, "data": [{"molecule": "CO[C@H]1C[C@@H]2CC[C@@H](C)[C@@](O)(O2)C(=O)C(=O)N2CCCC[C@H]2C(=O)O[C@H]([C@H](C)C[C@@H]2CC[C@@H](O)[C@H](OC)C2)CC(=O)[C@H](C)/C=C(\\C)[C@@H](O)[C@@H](OC)C(=O)[C@H](C)C[C@H](C)/C=C/C=C/C=C/1C", "note": "[Rapamycine, rapamycine]", "values": [{"measurement": "inhibition at 0.2 µM", "setting": "tissus hépatiques", "result": 38, "unit": "%"}, {"measurement": "inhibition at 0.2 µM", "setting": "hépatocytes", "result": 19, "unit": "%"}, {"measurement": "time after injection from which rapamycin is found in bile", "setting": "[1]; bile, increases during perfusion", "result": 1, "unit": "heure"}, {"measurement": "Tmax", "setting": "[1]; whole blood and plasma, 37°C, read-out: pic de concentration (time after injection) (converted)", "result": 5, "unit": "min"}, {"measurement": "concentration moyenne de rapamycine", "setting": "[2]", "result": "150 ± 30", "unit": "ng/mL"}, {"measurement": "solubilité", "setting": "[3]", "result": "> 250", "unit": "mg/mL"}, {"measurement": "Solubilité à température ambiante", "setting": "[4]; DMSO/H2O 40 % volumique, [Rapamycine] 0,4 mg/mL", "result": "Non (aspect laiteux avec cristaux"}, {"measurement": "Solubilité à température ambiante", "setting": "[4]; DMSO/H2O 40 % volumique, [Rapamycine] 1 mg/mL", "result": "Non (aspect laiteux avec cristaux"}, {"measurement": "Solubilité à température ambiante", "setting": "[4]; DMSO/H2O 40 % volumique, [Rapamycine] 4 mg/mL", "result": "Non (aspect laiteux avec cristaux"}, {"measurement": "Solubilité à température ambiante", "setting": "[4]; DMSO/H2O 60 % volumique, [Rapamycine] 0,4 mg/mL", "result": "Oui"}, {"measurement": "Solubilité à température ambiante", "setting": "[4]; DMSO/H2O 60 % volumique, [Rapamycine] 1 mg/mL", "result": "Oui"}, {"measurement": "Solubilité à température ambiante", "setting": "[4]; DMSO/H2O 60 % volumique, [Rapamycine] 4 mg/mL", "result": "Non (aspect laiteux avec cristaux"}, {"measurement": "Solubilité à température ambiante", "setting": "[4]; DMSO/H2O 80 % volumique, [Rapamycine] 0,4 mg/mL", "result": "Oui"}, {"measurement": "Solubilité à température ambiante", "setting": "[4]; DMSO/H2O 80 % volumique, [Rapamycine] 1 mg/mL", "result": "Oui"}, {"measurement": "Solubilité à température ambiante", "setting": "[4]; DMSO/H2O 80 % volumique, [Rapamycine] 4 mg/mL", "result": "Oui"}, {"measurement": "Solubilité à température ambiante", "setting": "[4]; DMSO/H2O 100 % volumique, [Rapamycine] 0,4 mg/mL", "result": "Oui"}, {"measurement": "Solubilité à température ambiante", "setting": "[4]; DMSO/H2O 100 % volumique, [Rapamycine] 1 mg/mL", "result": "Oui"}, {"measurement": "Solubilité à température ambiante", "setting": "[4]; DMSO/H2O 100 % volumique, [Rapamycine] 4 mg/mL", "result": "Oui"}, {"measurement": "Solubilité à température ambiante", "setting": "[4]; second study (Tableau 4), DMSO/H2O 70 % volumique, [Rapamycine] 0,4 mg/mL", "result": "Oui"}, {"measurement": "Solubilité à température ambiante", "setting": "[4]; second study (Tableau 4), DMSO/H2O 70 % volumique, [Rapamycine] 1 mg/mL", "result": "Oui"}, {"measurement": "Solubilité à température ambiante", "setting": "[4]; second study (Tableau 4), DMSO/H2O 70 % volumique, [Rapamycine] 4 mg/mL", "result": "Oui"}, {"measurement": "Solubilité à température ambiante", "setting": "[4]; second study (Tableau 4), DMSO/H2O 85 % volumique, [Rapamycine] 0,4 mg/mL", "result": "Oui"}, {"measurement": "Solubilité à température ambiante", "setting": "[4]; second study (Tableau 4), DMSO/H2O 85 % volumique, [Rapamycine] 1 mg/mL", "result": "Oui"}, {"measurement": "Solubilité à température ambiante", "setting": "[4]; second study (Tableau 4), DMSO/H2O 85 % volumique, [Rapamycine] 4 mg/mL", "result": "Oui"}, {"measurement": "Solubilité à température ambiante", "setting": "[4]; second study (Tableau 4), DMSO/H2O 100 % volumique, [Rapamycine] 0,4 mg/mL", "result": "Oui"}, {"measurement": "Solubilité à température ambiante", "setting": "[4]; second study (Tableau 4), DMSO/H2O 100 % volumique, [Rapamycine] 1 mg/mL", "result": "Oui"}, {"measurement": "Solubilité à température ambiante", "setting": "[4]; second study (Tableau 4), DMSO/H2O 100 % volumique, [Rapamycine] 4 mg/mL", "result": "Oui"}, {"measurement": "diminution du taux de triglycérides intra cellulaires", "setting": "foies humains; foie N°1, 9 heures after injection of rapamycin", "result": 39, "unit": "%"}, {"measurement": "diminution du taux de triglycérides intra cellulaires", "setting": "foies humains; foie N°2", "result": 31, "unit": "%"}, {"measurement": "pharmacocinétique", "setting": "foies humains; human livers on perfusion machine", "result": "identique à celle observée lors de la perfusion des foies de cochon"}]}]}
